Results: the NIST ThermoML archive (doi:10.1016/j.jct.2004.06.002)

Experiments:
[1] = Crystal
[2] = molar heat capacity at constant pressure; settings: 101.33 kPa
[3] = Molar enthalpy of transition or fusion; settings: Crystal

CCCCCCCCCCCC(=O)O.Cc1cc(C)nc(Nc2ccccc2)n1 [4,6-dimethyl-N-phenylpyrimidin-2-amine dodecanoate]
Settings	Molar enthalpy of transition or fusion [kcal/mol]	Triple point temperature [K]
[1]	–	321.52
[3]	16.07	–

[2]
Settings	molar heat capacity at constant pressure [J/K/mol]
78.4 K, Crystal	214.56
80.59 K, Crystal	219.02
82.77 K, Crystal	224.04
84.91 K, Crystal	229.03
87.02 K, Crystal	231.07
89.13 K, Crystal	235.38
91.21 K, Crystal	238.58
93.27 K, Crystal	241.25
95.35 K, Crystal	244.45
97.44 K, Crystal	249.07
99.52 K, Crystal	255.64
101.56 K, Crystal	258.48
103.55 K, Crystal	262.85
105.48 K, Crystal	266.32
107.37 K, Crystal	268.87
109.23 K, Crystal	272.45
111.05 K, Crystal	277.04
112.84 K, Crystal	280.4
114.62 K, Crystal	283.66
116.37 K, Crystal	286.19
118.1 K, Crystal	289.83
119.81 K, Crystal	291.78
121.5 K, Crystal	295.26
123.18 K, Crystal	299.07
124.85 K, Crystal	302.36
126.5 K, Crystal	305.27
128.13 K, Crystal	309.31
129.75 K, Crystal	313.47
131.36 K, Crystal	316.7
133.51 K, Crystal	320.85
136.04 K, Crystal	325.43
138.47 K, Crystal	328.35
140.85 K, Crystal	332.7
143.2 K, Crystal	334.95
145.52 K, Crystal	336.56
147.82 K, Crystal	338.15
150.09 K, Crystal	340.57
152.34 K, Crystal	342.79
154.57 K, Crystal	344.26
156.78 K, Crystal	346.53
158.98 K, Crystal	347.92
161.16 K, Crystal	351.38
163.31 K, Crystal	355.11
165.46 K, Crystal	356.7
167.59 K, Crystal	360.16
169.71 K, Crystal	363.66
171.81 K, Crystal	365.89
173.91 K, Crystal	368.25
175.99 K, Crystal	370.24
178.06 K, Crystal	374.92
180.1 K, Crystal	378.77
182.13 K, Crystal	381.27
184.16 K, Crystal	384.86
186.15 K, Crystal	387.43
188.14 K, Crystal	391.88
190.11 K, Crystal	393.71
192.06 K, Crystal	396.41
194.01 K, Crystal	400.38
195.94 K, Crystal	403.84
197.86 K, Crystal	406.78
199.77 K, Crystal	410.78
201.68 K, Crystal	414.73
203.58 K, Crystal	416.01
205.49 K, Crystal	418.67
207.39 K, Crystal	423.8
209.27 K, Crystal	427.28
213.63 K, Crystal	430.93
215.48 K, Crystal	433.69
217.33 K, Crystal	437.16
219.16 K, Crystal	440.33
220.99 K, Crystal	444.57
222.81 K, Crystal	447.12
224.61 K, Crystal	450.71
226.4 K, Crystal	454.16
228.17 K, Crystal	457.43
229.91 K, Crystal	461.64
231.66 K, Crystal	464.26
233.45 K, Crystal	468.99
235.26 K, Crystal	472.26
237.06 K, Crystal	475.98
238.86 K, Crystal	479.33
240.62 K, Crystal	485.92
242.33 K, Crystal	489.49
244.03 K, Crystal	494.38
245.76 K, Crystal	499.28
248.1 K, Crystal	502
250.99 K, Crystal	505.26
253.79 K, Crystal	509.97
256.52 K, Crystal	514.43
259.21 K, Crystal	517.59
261.87 K, Crystal	521.36
264.51 K, Crystal	524.15
267.13 K, Crystal	529.61
269.73 K, Crystal	533.73
272.3 K, Crystal	537.73
274.79 K, Crystal	541.43
277.25 K, Crystal	545.05
279.67 K, Crystal	549.95
282.04 K, Crystal	553.99
284.36 K, Crystal	557.02
286.64 K, Crystal	560.07
288.9 K, Crystal	564.82
291.1 K, Crystal	568.54
293.23 K, Crystal	573.27
295.4 K, Crystal	577.71
297.6 K, Crystal	582.62
299.78 K, Crystal	586.55
301.95 K, Crystal	590.35
304.05 K, Crystal	595.77
306.13 K, Crystal	598.65
308.2 K, Crystal	604.09
323.46 K, Liquid	830.56
325.28 K, Liquid	836.77
327.09 K, Liquid	842.17
328.88 K, Liquid	847.91
330.65 K, Liquid	851.32
332.41 K, Liquid	855.64
334.15 K, Liquid	860.22
335.87 K, Liquid	866.7
337.57 K, Liquid	869.28
339.26 K, Liquid	872.85
